Test results published in patent publication US20230416271A1, “HETEROARYLQUINAZOLINE COMPOUNDS AS PROTEIN KINASE INHIBITORS” (CHENGDU CYNOGEN BIO-PHARMACEUTICAL TECHNOLOGY CO., LTD., priority 2020, published 2023).

Columns and labels:
Type in all cases: biochemical
CDK4/cyclin D3 = CDK4/cyclin D3 (Homo sapiens (Human), UniProt P11802); assay: Kinase activity assay (Caliper Mobility Shift Assay), CDK4/cyclin D3; details: 10 nM kinase, 250 uM ATP
Experimental: (§1) The inhibitory effect of compounds against the kinase CDK4/cyclin D3 was detected by Caliper Mobility Shift Assay method. The final concentration of the compounds to be tested was set at 10 concentrations starting from 1 uM by 3-fold serial dilution. 5 μL of compounds at 5-fold final concentration and 10 μL of CDK4/cyclin D3 kinase solution at a final concentration of 10 nM was added to a 384-well reaction plate, respectively. The plate was pre-incubated for 10 min at room temperature (with negative control wells containing 10 uL of kinase buffer and 5 uL of 5% DMSO; positive control wells containing 10 μL of kinase solution and 5 uL of 5% DMSO). The reaction was initiated by adding 10 μL of ATP at a final concentration of 250 uM and the corresponding substrate peptide mixture at room temperature for 150 minutes. 30 uL of stop detection solution containing EDTA was added to stop the kinase reaction. Caliper EZ Reader was used to read the conversion rate. Conversion inhibition rate %=(average conversion rate of positive control %−conversion rate of sample %)/(average conversion rate of positive control %−average conversion rate of negative control %). wherein: negative control wells represent the conversion rate readings of wells without enzymatic activity; positive control wells represent conversion readings for wells with no compound inhibition. The log(inhibitor) vs. response—Variable slope of the analysis software GraphPad Prism 5 was used with log concentration value as the X-axis and the percent inhibition rate as the Y-axis to fit the dose-response curve, the IC50 value of each compound on the enzyme activity was thus obtained. Calculation formula: Y=Bottom+(Top−Bottom)/(1+10^((Log IC50−X)*HillSlope)).

CDK9/cyclin T1 = CDK9/cyclin T1 (Homo sapiens (Human), UniProt P50750); assay: Kinase activity assay (Caliper Mobility Shift Assay), CDK9/cyclin T1
CDK9/cyclin T1, sequence (P50750 whole entry, species assumed): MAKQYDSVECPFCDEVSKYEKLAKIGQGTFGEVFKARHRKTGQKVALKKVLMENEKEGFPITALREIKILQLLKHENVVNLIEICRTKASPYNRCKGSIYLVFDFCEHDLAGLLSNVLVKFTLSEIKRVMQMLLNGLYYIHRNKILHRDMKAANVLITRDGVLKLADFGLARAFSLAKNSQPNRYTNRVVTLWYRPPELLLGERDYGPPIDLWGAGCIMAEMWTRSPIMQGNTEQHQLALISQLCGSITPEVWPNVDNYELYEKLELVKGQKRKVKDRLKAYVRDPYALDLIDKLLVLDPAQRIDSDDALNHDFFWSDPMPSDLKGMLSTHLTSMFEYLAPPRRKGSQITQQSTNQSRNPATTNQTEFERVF
CDK9/cyclin T1, sequence (O60563 whole entry partner, species assumed): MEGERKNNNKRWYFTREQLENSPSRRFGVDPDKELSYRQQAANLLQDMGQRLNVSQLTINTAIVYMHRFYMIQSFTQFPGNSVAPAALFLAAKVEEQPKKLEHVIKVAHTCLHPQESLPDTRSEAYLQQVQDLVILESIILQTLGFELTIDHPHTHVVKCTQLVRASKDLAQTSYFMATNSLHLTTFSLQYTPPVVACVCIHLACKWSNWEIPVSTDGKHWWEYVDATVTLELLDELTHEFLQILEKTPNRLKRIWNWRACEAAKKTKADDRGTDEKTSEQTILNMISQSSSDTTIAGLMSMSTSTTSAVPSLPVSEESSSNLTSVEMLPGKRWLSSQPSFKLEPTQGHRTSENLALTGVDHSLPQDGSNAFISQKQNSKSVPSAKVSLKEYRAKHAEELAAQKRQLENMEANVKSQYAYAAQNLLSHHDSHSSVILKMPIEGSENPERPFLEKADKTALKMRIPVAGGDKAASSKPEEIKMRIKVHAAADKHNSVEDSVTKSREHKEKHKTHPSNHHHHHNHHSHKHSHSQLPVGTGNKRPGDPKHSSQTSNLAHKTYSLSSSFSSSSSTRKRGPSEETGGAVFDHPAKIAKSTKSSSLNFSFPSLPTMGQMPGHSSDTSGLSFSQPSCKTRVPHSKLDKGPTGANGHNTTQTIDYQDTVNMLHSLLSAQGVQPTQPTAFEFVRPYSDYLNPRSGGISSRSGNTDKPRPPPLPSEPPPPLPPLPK
Experimental: as §1
(§2) The IC50 values and inhibitory activities of compounds of the present disclosure on CDK6/Cyclin D3, CDK2/Cyclin A2, and CDK9/cyclin T1 were tested in a similar manner.

CDK6/Cyclin D3 = CDK6/Cyclin D3 (Homo sapiens (Human), UniProt Q00534); assay: Kinase activity assay (Caliper Mobility Shift Assay), CDK6/Cyclin D3
CDK6/Cyclin D3, sequence (Q00534 whole entry, species assumed): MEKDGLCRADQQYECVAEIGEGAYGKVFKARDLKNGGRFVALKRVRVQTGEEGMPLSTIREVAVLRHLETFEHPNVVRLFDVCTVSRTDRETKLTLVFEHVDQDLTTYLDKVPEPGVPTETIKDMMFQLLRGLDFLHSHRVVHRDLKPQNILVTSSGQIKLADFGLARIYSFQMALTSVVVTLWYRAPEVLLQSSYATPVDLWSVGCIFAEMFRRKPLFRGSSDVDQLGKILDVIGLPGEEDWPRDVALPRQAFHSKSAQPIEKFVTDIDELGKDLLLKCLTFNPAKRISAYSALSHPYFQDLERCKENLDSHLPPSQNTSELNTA
CDK6/Cyclin D3, sequence (P30281 whole entry partner, species assumed): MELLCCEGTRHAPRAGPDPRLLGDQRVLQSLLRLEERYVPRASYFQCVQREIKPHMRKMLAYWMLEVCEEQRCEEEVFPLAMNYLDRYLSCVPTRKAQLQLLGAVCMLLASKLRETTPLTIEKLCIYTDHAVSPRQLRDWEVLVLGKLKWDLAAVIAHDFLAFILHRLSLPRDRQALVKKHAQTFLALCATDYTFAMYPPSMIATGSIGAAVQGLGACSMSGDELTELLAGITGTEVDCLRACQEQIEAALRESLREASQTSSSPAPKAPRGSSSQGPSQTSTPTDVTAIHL
Experimental: as §1, §2

CDK2/Cyclin A2 = CDK2/Cyclin A2 (Homo sapiens (Human), UniProt P24941); assay: Kinase activity assay (Caliper Mobility Shift Assay), CDK2/Cyclin A2
Experimental: as §1, §2

CDK4/cyclin D3, sequence (P11802 whole entry, species assumed): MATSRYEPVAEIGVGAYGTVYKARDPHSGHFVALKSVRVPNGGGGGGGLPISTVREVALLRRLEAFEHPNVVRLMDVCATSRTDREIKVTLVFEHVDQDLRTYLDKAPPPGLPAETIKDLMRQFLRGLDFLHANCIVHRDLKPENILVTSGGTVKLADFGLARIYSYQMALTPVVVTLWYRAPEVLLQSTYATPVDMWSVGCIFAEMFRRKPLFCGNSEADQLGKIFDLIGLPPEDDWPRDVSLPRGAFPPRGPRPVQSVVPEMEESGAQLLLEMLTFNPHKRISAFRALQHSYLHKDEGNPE
CDK4/cyclin D3, sequence (P30281 whole entry partner, species assumed): as the sequence (P30281 whole entry partner, species assumed) above

## CC(C)c1noc2ccc3cnc(N[C@H]4CC[C@H](NC5CCNCC5)CC4)nc3c12 [I.2, (1R,4R)-N^1-(9-isopropylisoxazolo[5,4-h]quinazolin-2-yl)-N^4-(piperidin-4-yl)cyclohexane-1,4-diamine]
CDK4/cyclin D3
  IC50: 22 nM
CDK9/cyclin T1
  IC50: 16 nM
CDK6/Cyclin D3
  IC50: 26 nM
CDK2/Cyclin A2
  IC50: 12 nM

## CC(C)n1nnc2ccc3cnc(N[C@H]4CC[C@H](NC5CCOCC5)CC4)nc3c21 [II.2, (1R,4R)-N^1-(1-isopropyl-1H-[1,2,3]triazolo[4,5-h]quinazolin-8-yl)-N^4-(tetrahydro-2H-pyran-4-yl)cyclohexane-1,4-diamine]
CDK4/cyclin D3
  IC50: 16 nM
CDK9/cyclin T1
  IC50: 8 nM
CDK6/Cyclin D3
  IC50: 22 nM
CDK2/Cyclin A2
  IC50: 20 nM

## CC(C)n1nnc2ccc3cnc(N[C@H]4CC[C@H](N5CCN(CC6CCCC6)CC5)CC4)nc3c21 [II.8, N-((1R,4R)-4-(4-(cyclopentylmethyl)piperazin-1-yl)cyclo-hexyl)-1-isopropyl-1H-[1,2,3]triazolo[4,5-h]quinazolin-8-amine]
CDK4/cyclin D3
  IC50: 43 nM
CDK9/cyclin T1
  IC50: 11 nM
CDK6/Cyclin D3
  IC50: 37 nM
CDK2/Cyclin A2
  IC50: > 500 nM
